Test systems include A549 NSCLC; U251 CNS; RXF 393 renal; HOP-92 NSCLC; SF-539 CNS; MALME-3M melanoma; SNB-75 CNS; NCI-H226 lung; CAKI-1 renal; HCC-2998 colon.
Common to all, as to test: NCI anticancer screen, dose series, 48 h

Experimental findings from PubChem BioAssay (NCI) are described below.

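Growth conditions: 96-well plates. Treatment: test compound, 48 hours, 5 concentrations. Analysis: linear interpolation between bracketing concentrations; unreached endpoints set to highest concentration. The concentration for 50% growth inhibition is given as GI50. Definition used: TGI = concentration required for complete inhibition of growth.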 Where only a bound is given, the exact number is not on record here.

Turning to `COc1ccc(C2CCc3cc4c(cc3/C2=N/OC(C)=O)OCO4)cc1OC` (centres undefined), the TGI with A549 NSCLC is 80.1 µM; in the assay on U251 CNS, more than 100 µM; in the assay on RXF 393 renal, 54 µM; in the assay with HOP-92 NSCLC, 69.6 µM; with SF-539 CNS it was 35.7 µM; in the assay on MALME-3M melanoma it was 55.2 µM. Also, the TGI is 75 µM in the assay with SNB-75 CNS and 43.3 µM with NCI-H226 lung.
Consider `C#CCN(Cc1ccc2nc(N)[nH]c(=O)c2c1)c1ccc(C(=O)NC(CCC(=O)O)C(=O)O)cc1` (centres undefined), for which the TGI in the assay with CAKI-1 renal, with A549 NSCLC, with U251 CNS, in the assay on HOP-92 NSCLC, with SF-539 CNS and with MALME-3M melanoma was more than 100 µM each time. Moreover, the TGI in the assay with NCI-H226 lung and with HCC-2998 colon was more than 100 µM each time.
`COc1cc(NC(=O)Nc2cnc(Nc3ccc(N4CCOCC4)cc3)nc2Oc2cccc(OC)c2)cc(OC)c1`: the GI50 in the assay with A549 NSCLC is 1.99 µM; in the assay on U251 CNS, 1.63 µM; with RXF 393 renal it was 0.887 µM; in the assay on HOP-92 NSCLC it was 1.14 µM; in the assay on SF-539 CNS, 0.884 µM; in the assay on MALME-3M melanoma, 1.28 µM. Further, the values for the GI50 in the assay with SNB-75 CNS, in the assay on NCI-H226 lung and in the assay on HCC-2998 colon were 1.1 µM, 1.88 µM and 1.32 µM, respectively. In addition, the TGI in the assay on A549 NSCLC is 6.47 µM; in the assay with U251 CNS, 5.05 µM; in the assay on RXF 393 renal, 1.82 µM; in the assay on HOP-92 NSCLC, 3.51 µM; with SF-539 CNS, 1.75 µM; with MALME-3M melanoma, 3.82 µM. Besides, the TGI in the assay with SNB-75 CNS was 4.69 µM; in the assay with NCI-H226 lung it was 8.48 µM; with HCC-2998 colon it was 3.62 µM.
With `CCCCCCCCCCCCOP(N)(=O)OCCCCCCCCCCCC`, the TGI with A549 NSCLC, with U251 CNS, in the assay on RXF 393 renal, with SF-539 CNS, in the assay on MALME-3M melanoma and with SNB-75 CNS was more than 100 µM each time. Besides, the TGI in the assay on HCC-2998 colon is more than 100 µM.
For `CC(=O)Oc1ccc(/C=N/NC(N)=S)nc1`, the GI50 in the assay on A549 NSCLC was 29.5 µM; in the assay on U251 CNS it was 4.17 µM; with RXF 393 renal, 4.24 µM; with HOP-92 NSCLC, 12.9 µM; in the assay with SF-539 CNS it was 2.36 µM; with MALME-3M melanoma it was 4.96 µM. Besides, the GI50 in the assay on SNB-75 CNS was 11.7 µM; in the assay with NCI-H226 lung it was 22.1 µM; in the assay with HCC-2998 colon, 8.96 µM. The TGI in the assay on A549 NSCLC is more than 100 µM; in the assay with U251 CNS, more than 100 µM; in the assay with RXF 393 renal, more than 100 µM; with HOP-92 NSCLC it was more than 100 µM; in the assay on SF-539 CNS, more than 100 µM; in the assay with MALME-3M melanoma it was 43.5 µM. The figures for the TGI in the assay with SNB-75 CNS, with NCI-H226 lung and in the assay on HCC-2998 colon were more than 100 µM, 74.3 µM and more than 100 µM, respectively.
For `Cc1c(C(=O)CSc2nc3ccccc3[nH]2)c(=O)n(-c2ccccc2)n1C`, the TGI with CAKI-1 renal, with A549 NSCLC, in the assay with U251 CNS, with HOP-92 NSCLC, in the assay on SF-539 CNS and in the assay with MALME-3M melanoma was more than 100 µM throughout. The TGI in the assay on SNB-75 CNS, in the assay with NCI-H226 lung and with HCC-2998 colon was more than 100 µM in each case.
In the case of `CCOC(=O)C(NC(=O)c1[nH]cnc1/N=N/N(C)C)C(C)C` (centres undefined), the TGI with CAKI-1 renal, in the assay on A549 NSCLC, in the assay on U251 CNS, in the assay with SF-539 CNS, with MALME-3M melanoma and in the assay with SNB-75 CNS was more than 100 µM in each case. In addition, the TGI in the assay with NCI-H226 lung and in the assay with HCC-2998 colon was more than 100 µM throughout.
As for `CCCCCCCCCCCCCc1nn[nH]n1`, the TGI with A549 NSCLC was 40.7 µM; in the assay on U251 CNS it was 32.8 µM; in the assay on RXF 393 renal, 43.4 µM; with HOP-92 NSCLC it was 29.3 µM; in the assay on SF-539 CNS, 32.2 µM; with MALME-3M melanoma it was 33.5 µM. In addition, the values for the TGI in the assay on SNB-75 CNS, in the assay on NCI-H226 lung and in the assay with HCC-2998 colon were 36 µM, 45.5 µM and 33.7 µM, respectively.
`Cc1ccc(NC(=O)CC(=O)N2N=C(N(CCC#N)c3cccc(C)c3)CC2c2ccccc2)cc1` (centres undefined): the TGI in the assay on A549 NSCLC, in the assay on U251 CNS, in the assay with RXF 393 renal, in the assay with HOP-92 NSCLC, with SF-539 CNS and with MALME-3M melanoma was more than 100 µM each time. Besides, the TGI in the assay on SNB-75 CNS, in the assay on NCI-H226 lung and with HCC-2998 colon was more than 100 µM in each case.
As for `COC(=O)/C(=N\NC(N)=S)C(C#N)c1ccccc1` (centres undefined), the TGI in the assay on A549 NSCLC, with U251 CNS, in the assay with RXF 393 renal, in the assay with HOP-92 NSCLC, in the assay on SF-539 CNS and with MALME-3M melanoma was more than 100 µM throughout. The TGI in the assay with SNB-75 CNS, in the assay on NCI-H226 lung and with HCC-2998 colon was more than 100 µM in each case.
For the molecule `COc1cc2c(c(OC)c1OC)-c1ccc(SC)c(=O)cc1[C@@H](NC(=O)c1ccc(Cl)cc1)CC2`, the TGI with A549 NSCLC is more than 100 µM; with U251 CNS, less than 0.01 µM; in the assay on RXF 393 renal, 19.4 µM; in the assay with SF-539 CNS it was less than 0.01 µM; in the assay with MALME-3M melanoma it was 5.03 µM; in the assay with SNB-75 CNS it was more than 100 µM. In addition, the TGI in the assay with NCI-H226 lung and with HCC-2998 colon was less than 0.01 µM throughout.
Turning to `O=c1c2ccccc2oc2ccc(OCCCCCCN3CCCCCC3)cc12`, the GI50 was 3.51 µM in the assay on A549 NSCLC; 3.28 µM in the assay on U251 CNS; 2.17 µM in the assay with RXF 393 renal; 4.29 µM with HOP-92 NSCLC; 1.76 µM with SF-539 CNS; 1.93 µM in the assay with MALME-3M melanoma. The GI50 with SNB-75 CNS was 3.11 µM; with NCI-H226 lung, 4.29 µM; in the assay with HCC-2998 colon, 2.97 µM. Besides, the TGI was determined as 11.5 µM with A549 NSCLC; 11.5 µM in the assay on U251 CNS; 5.6 µM in the assay on RXF 393 renal; 20.7 µM with HOP-92 NSCLC; 3.4 µM in the assay on SF-539 CNS; 3.68 µM in the assay with MALME-3M melanoma. Moreover, the TGI in the assay on SNB-75 CNS was determined as 14.1 µM; in the assay with NCI-H226 lung it was 20.2 µM; in the assay on HCC-2998 colon, 11.6 µM.
